Source: ChEMBL document CHEMBL3430912, “GSK Tres Cantos Anti-Kinetoplastid Screening (TCAKS) Data”

Assays:
[1] = tested on: Trypanosoma brucei brucei; experiment: GSK_TCAKS: pIC50 Trypanosoma brucei viability assay using luminiscence. Assay plates (1536-well) were prepared. T. brucei cultures were harvested and counted in a CASY cell counter. A parasite suspension was prepared at a final concentration of 5 * 10^4 cells/mL in complete HMI9 medium and 6uL was dispensed to all wells containing compounds using a Multidrop Combi dispenser. 6uL of HMI9 media with 0.4% DMSO were dispensed to control columns. Plates were incubated for 24 h at 37C, 5% CO2 then tempered for 10 min at room temperature. ATP content was quantified by adding 4 uL of CellTiter-Glo Reagent (Promega) according to the manufacturer's instructions. Luminescence was measured using a ViewLux.; assay type: functional, organism-based; details: Lister 427, CASY
[2] = tested on: Trypanosoma cruzi; experiment: (§1) GSK_TCAKS: pIC50 Trypanosoma cruzi Imaging: Amastigotes/Cell. […] Cells were then washed once with PBS before infection. T. cruzi trypomastigotes, collected at days 5 to 8 after infection from LLC-MK2 parasite infected cultures, were allowed to swim out for 4h at 37C from a centrifuged pellet (2,500 rpm/10 min/room temperature). Trypomastigotes were then collected and counted in a CASY Cell Counter. Trypomastigotes, in supplemented DMEM, were added to H9c2 cultures in a multiplicity of infection of 1 and incubated for 18 h. Cells were washed once with PBS before incubation of the infected H9c2 monolayer with trypsin (Life-Technologies) to detach cells from the flask. Cells were counted in a CASY Cell Counter using a 150 um capillary and their density set at 5 * 10^4 cells per mL in supplemented assay DMEM. Infected H9c2 were dispensed into 384-well poly-lysine coated assay plates at 50uL per well using a Multidrop Combi dispenser. After seeding them, the plates were incubated at 37C, 5% CO2 for 72h. Cultures were then fixed and stained by addition of 50 uL of a solution containing 8% formaldehyde and 4 uM DRAQ5 DNA dye (BioStatus, UK) per well. […] Five images were collected per well for reliable statistical analysis. Automated image analysis was performed with a script developed on Acapella High Content Imaging and Analysis Software (PerkinElmer). Output: number of amastigotes per cell as infection level measurement.; assay type: functional, organism-based, Rattus norvegicus; details: H9c2, 4 h
[3] = tested on: Trypanosoma brucei brucei; experiment: GSK_TCAKS: pIC50 Trypanosoma brucei viability assay using fluorescence intensity. Assay plates (1536-well) were prepared by dispensing 25nL of compound solution per well using an Echo acoustic dispenser (Labcyte).; assay type: functional, organism-based; details: Lister 427, 2 h
[4] = tested on: Trypanosoma cruzi; experiment: GSK_TCAKS: pIC50 Trypanosoma cruzi viability assay using beta-GAL activity. This assay was run at single shot at 5uM compound concentration per well. The biological reagents consisted of NIH-3T3 host cells and trypomastigotes parasitic cells; both cell types were set to a 3.3 * 10^5 cells/mL dilution in assay DMEM by means of a CASY cell counter device using a 60um capillary. 6 uL of the mixture were dispensed per well (about 1 * 10^3 host-cells and 1 * 10^3 parasites) with a Multidrop Combi dispenser. […] In all wells, the percentage of DMSO never exceeded 0.5%. Plates incubated for four days at 37C, 5% CO2. The substrate used for the assay fluorescence intensity (FLINT) readout was resorufin-beta-D-galactopiranoside (Sigma-Aldrich) at 5uM per well. It was diluted in PBS supplemented with the soft detergent Igepal (Fluka).; assay type: functional, organism-based, Mus musculus; details: Tulahuen, NIH3T3
[5] = tested on: Leishmania donovani; experiment: (§2) GSK_TCAKS: pIC50 Leishmania donovani Imaging: Amastigotes/Macrophages. Assay plates (384-well) were prepared by adding 250nL of compound to each well. For single shot assay, the final compound concentration was 5 uM. […] Automated image analysis was performed with a script developed on Acapella High Content Imaging and Analysis Software (PerkinElmer). Output: Average number of amastigotes per macrophage cell were reported for each well.; assay type: functional, organism-based, Homo sapiens; details: THP-1
[6] = tested on: Leishmania donovani; experiment: as §2, with “Infected Macrophages.” for “Amastigotes/Macrophages.”, “Percent” for “Average number”, “infected” for “amastigotes per”, “cells” for “cell”; assay type: functional, organism-based, Homo sapiens; details: THP-1
[7] = tested on: Leishmania donovani; experiment: GSK_TCAKS: pIC50 Leishmania donovani viability assay using fluorescence intensity. Assay plates (1536-well) were prepared by adding 30nL per well of compound. For single shot assay, the final compound concentration was 5uM. […] Briefly, eGFP LdBOB axenic amastigotes were harvested, fixed and counted in a CASY cell counter (Roche-Applied Science). A final concentration of 1.5 * 10^5 cells per well were prepared in amastigote media containing 500 U/mL penicillin/streptomycin (Invitrogen) and 6uL was dispensed to each experimental well using a Multidrop Combi dispenser (Thermo Scientific). 6uL of assay media was dispensed to control columns used as reference for 100% compound response. Following incubation for 72 h at 37C, 5% CO2, 2 uL of resazurin was added to each well at a final concentration of 0.5 mM in phosphate buffered saline (PBS) with IGEPAL (Sigma-Aldrich), 0.05% (v/v).; assay type: functional, organism-based
[8] = GSK_TCAKS: pIC50 HepG2 human cell line viability assay using luminiscence. […] Seeding density was checked to ensure that new mono-layers were not more than 50% confluent at the time of harvesting. Cell suspension was added to 500 mL of the same medium at a final density of 1.2 * 10^5 cells/mL. This cell suspension was dispensed (25 uL, 3000 cells per well) into 384-well clear-bottom plates using a Multidrop Combi dispenser. Prior to addition of the cell suspension, the screening compounds (250 nL) were pre-dispensed into the plates with an Echo liquid handler. Plates were incubated for 48 h at 37C, 5% CO2. After incubation, plates equilibrated at room temperature for 30 min before proceeding to develop the luminescent signal. The signal developer, CellTiter-Glo Reagent, was allowed to equilibrate at room temperature for 30 min and added to the plates (25uL per well) using a Multidrop Combi dispenser. Plates were left for 10 min at room temperature for stabilization and then read using a ViewLux.; assay type: toxicity, cell-based
[9] = tested on: NIH3T3; experiment: GSK_TCAKS: pIC50 NIH 3T3 cell line viability assay using luminiscence. Tissue culture surface treated assay plates (1536-well) were used. […] The 100% cells survival control was determined exposing the host-cells to a 0.5% DMSO concentration, whereas the 100% toxicity control was achieved by seeding the cells in presence of Amphotericin B at 50uM. Plates were incubated for four days at 37C, 5% CO2. The assay readout was developed by addition of 5uL of CellTiter-Glo Reagent following the manufacturer's instructions. Luminiscence was measured using a ViewLux.; assay type: functional, cell-based; details: Mus musculus, NIH3T3, 96 h
[10] = tested on: Trypanosoma cruzi; experiment: as §1, with “H2C9” for “Trypanosoma cruzi”, “H9c2 Host Cardiomyocytes.” for “Amastigotes/Cell.”, “Number” for “number”, “H9c2 Host Cardiomyocytes nuclei to determine drug-related cytotoxicity.” for “amastigotes per cell as infection level measurement.”; assay type: functional, organism-based, Rattus norvegicus; details: H9c2, 4 h
[11] = tested on: Trypanosoma cruzi; experiment: GSK_TCAKS: pIC50 Trypanosoma cruzi Imaging: Infected Cells. […] Cells were then washed once with PBS before infection. T. cruzi trypomastigotes, collected at days 5 to 8 after infection from LLC-MK2 parasite infected cultures, were allowed to swim out for 4h at 37C from a centrifuged pellet (2,500 rpm/10 min/room temperature). Trypomastigotes were then collected and counted in a CASY Cell Counter. Trypomastigotes, in supplemented DMEM, were added to H9c2 cultures in a multiplicity of infection of 1 and incubated for 18 h. Cells were washed once with PBS before incubation of the infected H9c2 monolayer with trypsin (Life-Technologies) to detach cells from the flask. Cells were counted in a CASY Cell Counter using a 150 um capillary and their density set at 5 * 10^4 cells per mL in supplemented assay DMEM. Infected H9c2 were dispensed into 384-well poly-lysine coated assay plates at 50uL per well using a Multidrop Combi dispenser. After seeding them, the plates were incubated at 37C, 5% CO2 for 72h. Cultures were then fixed and stained by addition of 50 uL of a solution containing 8% formaldehyde and 4 uM DRAQ5 DNA dye (BioStatus, UK) per well. […] Five images were collected per well for reliable statistical analysis. Automated image analysis was performed with a script developed on Acapella High Content Imaging and Analysis Software (PerkinElmer). Output: percentage of infected cells per well as a second infection marker.; assay type: functional, organism-based, Rattus norvegicus; details: H9c2, 4 h
[12] = target: Sterol 14-alpha demethylase (Trypanosoma cruzi (strain CL Brener), UniProt Q7Z1V1); experiment: GSK_TCAKS: pIC50 CYP51 from Trypanosoma cruzi.; assay type: functional
[13] = tested on: Leishmania donovani; experiment: as §2, with “THP-1 Host Macrophages.” for “Amastigotes/Macrophages.”, “THP-1” for “Average number of amastigotes per macrophage”, “cell count” for “cell”; assay type: functional, organism-based, Homo sapiens

Sterol 14-alpha demethylase, sequence (Q7Z1V1 whole entry): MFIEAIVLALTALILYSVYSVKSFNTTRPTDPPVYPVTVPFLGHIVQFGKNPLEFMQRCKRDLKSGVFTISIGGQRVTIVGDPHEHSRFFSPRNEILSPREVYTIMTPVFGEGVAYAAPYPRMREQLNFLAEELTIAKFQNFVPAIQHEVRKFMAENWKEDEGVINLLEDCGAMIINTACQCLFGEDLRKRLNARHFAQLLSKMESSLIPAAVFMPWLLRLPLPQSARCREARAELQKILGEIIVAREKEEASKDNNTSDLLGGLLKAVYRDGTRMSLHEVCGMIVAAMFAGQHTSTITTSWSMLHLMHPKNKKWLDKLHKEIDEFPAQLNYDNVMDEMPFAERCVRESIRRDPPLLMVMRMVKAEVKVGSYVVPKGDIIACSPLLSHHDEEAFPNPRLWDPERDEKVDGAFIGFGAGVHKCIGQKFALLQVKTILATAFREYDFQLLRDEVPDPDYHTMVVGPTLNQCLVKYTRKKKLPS

Compound	IC50 [1]	IC50 [2]	IC50 [3]	IC50 [4]	IC50 [5]	IC50 [6]	IC50 [7]	IC50 at 48 h [8]	IC50 [9]	IC50 [10]	IC50 [11]	IC50 [12]	IC50 [13]
Cc1c(C(C)NC(=O)Nc2cccc(Cl)c2)sc2ncnn12 (stereo not drawn)	> 39.8 µM	0.158 µM	20 µM	0.141 µM	2 µM	> 50.1 µM	2 µM	> 100 µM	> 50.1 µM	> 50.1 µM	0.2 µM	0.126 µM	> 50.1 µM
O=C(c1cccc(Cl)c1Cl)N1CCn2c1nc(-c1ccncc1)cc2=O	31.6 µM	0.316 µM	15.8 µM	0.178 µM	31.6 µM	> 50.1 µM	50.1 µM	> 100 µM	20 µM	> 50.1 µM	0.316 µM	0.0631 µM	> 50.1 µM
CS(=O)(=O)c1cccc(-c2cnc(N)c3c(-c4ccc(CO)cc4)csc23)c1	5.01 µM	0.316 µM	2 µM	0.794 µM	7.94 µM	10 µM	39.8 µM	> 100 µM	25.1 µM	> 50.1 µM	0.631 µM	3.16 µM	> 50.1 µM
O=C(NCCc1ccccn1)C(c1cn[nH]c1)N1CCN(c2ccc(Cl)c(Cl)c2)CC1 (stereo not drawn)	> 39.8 µM	0.126 µM	12.6 µM	0.1 µM	20 µM	> 50.1 µM	2.51 µM	> 100 µM	31.6 µM	> 50.1 µM	0.158 µM	0.126 µM	> 50.1 µM
COc1ccc(-c2ccc3nnc(-c4ccc(O)c(OC)c4)n3c2)cn1	2.51 µM	2 µM	2 µM	1.26 µM	> 50.1 µM	> 50.1 µM	3.98 µM	> 100 µM	50.1 µM	> 50.1 µM	3.16 µM	> 100 µM	> 50.1 µM
COc1cc(-c2nc(N3CCOCC3)sc2-c2ccnc(NC3CCOCC3)n2)ccc1Cl	> 39.8 µM	0.1 µM	15.8 µM	0.251 µM	0.02 µM	> 50.1 µM	> 50.1 µM	> 100 µM	> 50.1 µM	> 50.1 µM	0.158 µM	> 100 µM	> 50.1 µM
CN(C)c1ncc(-c2cncn2CCOc2ccc(Cl)cc2)cn1	> 39.8 µM	0.2 µM	> 39.8 µM	0.224 µM	> 50.1 µM	> 50.1 µM	> 50.1 µM	> 100 µM	39.8 µM	> 50.1 µM	0.251 µM	0.0501 µM	> 50.1 µM
CCC(c1ccc(F)cc1)n1cncc1-c1cnn(C)c1 (stereo not drawn)	> 39.8 µM	0.316 µM	> 39.8 µM	0.2 µM	> 50.1 µM	> 50.1 µM	> 50.1 µM	> 100 µM	25.1 µM	> 50.1 µM	0.316 µM	0.0794 µM	> 50.1 µM
O=C(Nc1ncc([N+](=O)[O-])s1)C1CC1	39.8 µM	0.398 µM	7.94 µM	0.398 µM	> 50.1 µM	> 50.1 µM	39.8 µM	> 100 µM	31.6 µM	> 50.1 µM	1 µM	> 100 µM	> 50.1 µM
CC(=Cc1ccccc1)CN1CCC(=O)N(Cc2cccnc2)CC1	> 39.8 µM	0.501 µM	> 39.8 µM	0.251 µM	31.6 µM	> 50.1 µM	> 50.1 µM	> 100 µM	> 50.1 µM	> 50.1 µM	0.501 µM	0.1 µM	39.8 µM
CN1CCN(c2nc(-c3ccc(Cl)cc3)c3c(N)n(C)nc3n2)CC1	31.6 µM	0.794 µM	12.6 µM	2 µM	31.6 µM	39.8 µM	> 50.1 µM	79.4 µM	25.1 µM	25.1 µM	1 µM	> 100 µM	39.8 µM
COc1ccc(C)cc1-c1csc(NC(=O)C(C)n2ccnc2)n1 (stereo not drawn)	> 39.8 µM	0.1 µM	25.1 µM	0.0708 µM	> 50.1 µM	> 50.1 µM	3.16 µM	> 100 µM	50.1 µM	> 50.1 µM	0.1 µM	0.0398 µM	> 50.1 µM
CC(C)Oc1cccc(N2CCC(C(=O)N3CCCN(C(C)C)CC3)CC2)c1	> 39.8 µM	0.251 µM	> 39.8 µM	1.26 µM	> 50.1 µM	> 50.1 µM	> 50.1 µM	> 100 µM	31.6 µM	> 50.1 µM	0.631 µM	> 100 µM	> 50.1 µM
CCN(Cc1ccncc1)Cc1ccc(NC(=O)c2cc(-c3ccc(F)cc3)n[nH]2)cc1	> 39.8 µM	0.251 µM	> 39.8 µM	0.398 µM	2.51 µM	> 50.1 µM	15.8 µM	> 100 µM	10 µM	> 50.1 µM	0.251 µM	0.0794 µM	5.01 µM
COc1cccc(CCNC(=O)C(c2cn[nH]c2)N2CCN(c3ccc(Cl)cc3)CC2)c1 (stereo not drawn)	31.6 µM	0.0158 µM	20 µM	0.02 µM	10 µM	20 µM	12.6 µM	50.1 µM	31.6 µM	39.8 µM	0.02 µM	0.0631 µM	25.1 µM
COc1ccc2nc(N(Cc3cccnc3)C(=O)C3CCC3)sc2c1	39.8 µM	0.1 µM	20 µM	0.126 µM	50.1 µM	> 50.1 µM	12.6 µM	> 100 µM	50.1 µM	> 50.1 µM	0.126 µM	0.0631 µM	> 50.1 µM
